Results on one molecule are retold here after ChEMBL document CHEMBL6127068, “Discovery of novel nitrofuran PROTAC-like compounds as dual inhibitors and degraders targeting STING” (Eur J Med Chem, 2024).

Structures are written as SMILES. Active and inactive are the calls of the source. No cut-off for these calls is given here.

The target of series [1] is T1, Protein cereblon/Stimulator of interferon genes protein (Mus musculus) (UniProt Q3TBT3+Q8C7D2). The experiment in a line: In vivo inhibition of STING signaling pathway in C57BL/6J mouse assessed as inhibition of cisplatin-induced CXCL10 mRNA expression in kidney at 25 to 50 mg/kg by qPCR analysis. Format: functional, organism-based. The conditions noted are these: dose 25-50 mg/kg.
T1 sequence (Q8C7D2 whole entry, looked up, one chain of several): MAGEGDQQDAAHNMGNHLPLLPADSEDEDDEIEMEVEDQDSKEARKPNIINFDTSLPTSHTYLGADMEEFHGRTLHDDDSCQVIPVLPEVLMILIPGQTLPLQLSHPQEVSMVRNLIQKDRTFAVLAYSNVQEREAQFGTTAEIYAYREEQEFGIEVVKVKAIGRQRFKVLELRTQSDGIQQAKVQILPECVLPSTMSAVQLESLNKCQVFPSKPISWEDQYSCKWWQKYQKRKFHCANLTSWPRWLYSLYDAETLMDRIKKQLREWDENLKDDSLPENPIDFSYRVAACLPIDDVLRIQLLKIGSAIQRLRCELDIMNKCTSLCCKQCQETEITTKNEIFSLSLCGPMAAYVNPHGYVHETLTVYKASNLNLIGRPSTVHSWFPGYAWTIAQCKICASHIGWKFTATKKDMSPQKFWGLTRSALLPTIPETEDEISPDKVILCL

The target in series [2] is T2, Stimulator of interferon genes protein (Mus musculus) (UniProt Q3TBT3).
T2 sequence (whole entry): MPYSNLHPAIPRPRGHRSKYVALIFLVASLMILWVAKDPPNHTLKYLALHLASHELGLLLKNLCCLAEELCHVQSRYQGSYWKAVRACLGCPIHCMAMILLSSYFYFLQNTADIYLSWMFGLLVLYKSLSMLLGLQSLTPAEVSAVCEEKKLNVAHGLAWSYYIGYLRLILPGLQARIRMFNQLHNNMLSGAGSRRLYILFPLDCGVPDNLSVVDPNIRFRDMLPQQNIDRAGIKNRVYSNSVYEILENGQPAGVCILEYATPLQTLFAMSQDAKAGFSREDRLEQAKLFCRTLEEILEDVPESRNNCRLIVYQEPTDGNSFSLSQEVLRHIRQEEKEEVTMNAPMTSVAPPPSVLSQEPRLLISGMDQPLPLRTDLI
The experiment in a line: Inhibition of STING in mouse RAW264.7 cells assessed as reduction in DMXAA-induced IL-6 mRNA expression at 5 to 20 uM pretreated for 1 hr followed by stimulation with DMXAA for 24 hrs by qRT-CPR analysis. It counts as cell-based. The conditions noted are these: dose 5-20 µM, time 25.0 hrs.

For series [3], the target named is T3, Protein cereblon/Stimulator of interferon genes protein (Homo sapiens, UniProt Q96SW2+Q86WV6). The experiment in a line: PROTAC activity at CRBN/STING in human THP-1 cells assessed as inhibition of cGAMP-induced TNF-alpha mRNA expression incubated for 1 hr followed by stimulation with cGAMP for 24 hrs by qRT-PCR analysis. The conditions noted are these: dose 5-20 µM, time 25.0 hrs. Format: cell-based.
T3 sequence (Q86WV6 whole entry, looked up): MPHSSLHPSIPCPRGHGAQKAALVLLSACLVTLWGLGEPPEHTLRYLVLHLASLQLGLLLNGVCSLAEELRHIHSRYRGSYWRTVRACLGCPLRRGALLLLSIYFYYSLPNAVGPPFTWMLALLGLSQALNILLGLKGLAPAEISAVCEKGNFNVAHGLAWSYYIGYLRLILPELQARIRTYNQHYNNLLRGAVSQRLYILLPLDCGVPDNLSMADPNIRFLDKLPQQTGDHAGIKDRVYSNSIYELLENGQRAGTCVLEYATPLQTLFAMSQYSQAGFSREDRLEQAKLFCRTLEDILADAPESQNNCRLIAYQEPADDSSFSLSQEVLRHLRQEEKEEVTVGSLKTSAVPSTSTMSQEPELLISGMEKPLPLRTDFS
T3 sequence (Q96SW2 whole entry, looked up): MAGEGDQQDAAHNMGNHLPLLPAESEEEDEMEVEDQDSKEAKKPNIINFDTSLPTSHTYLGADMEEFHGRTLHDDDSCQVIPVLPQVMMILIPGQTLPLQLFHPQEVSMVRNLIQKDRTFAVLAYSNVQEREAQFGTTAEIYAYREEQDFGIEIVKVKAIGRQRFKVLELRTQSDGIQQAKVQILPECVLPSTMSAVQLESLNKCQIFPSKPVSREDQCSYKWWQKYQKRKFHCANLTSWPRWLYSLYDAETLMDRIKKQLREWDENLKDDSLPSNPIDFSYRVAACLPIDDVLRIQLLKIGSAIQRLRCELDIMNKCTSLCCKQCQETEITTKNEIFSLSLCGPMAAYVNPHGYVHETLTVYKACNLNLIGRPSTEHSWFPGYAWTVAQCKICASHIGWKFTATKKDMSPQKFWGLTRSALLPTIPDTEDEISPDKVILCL

Series [4] relates to Mus musculus. Nature of the series: Anti-inflammatory activity against cisplatin-induced acute kidney injury C57BL/6J mouse model assessed as decrease in plasma uric acid level at 25 to 50 mg/kg. Format: functional, organism-based. The conditions noted are these: dose 25-50 mg/kg.
The target in series [5] is T3, Protein cereblon/Stimulator of interferon genes protein. Nature of the series: PROTAC activity at CRBN/STING in human THP-1 cells assessed as inhibition of cGAMP-induced IL-6 mRNA expression incubated for 1 hr followed by stimulation with cGAMP for 24 hrs by qRT-PCR analysis. Format: cell-based. The conditions noted are these: dose 5-20 µM, time 25.0 hrs. For orientation: Real-time PCR tracks product formation cycle by cycle.

The nature of series [6]: Toxicity against cisplatin-induced acute kidney injury C57BL/6J mouse model assessed as effect on liver morphology at 25 to 50 mg/kg by Hematoxylin-Eosin staining based microscopic analysis. Format: organism-based. The conditions noted are these: in vivo, dose 25-50 mg/kg.
The test system of series [7] is Mus musculus. Nature of the series: Anti-inflammatory activity against C57BL/6J mouse assessed as inhibition of cisplatin-induced hepatic impairment by measuring restoration of AST activity at 25 to 50 mg/kg. Format: functional, organism-based. The conditions noted are these: dose 25-50 mg/kg.
The target in series [8] is T1, Protein cereblon/Stimulator of interferon genes protein (Mus musculus). The experiment in a line: In vivo inhibition of STING signaling pathway in C57BL/6J mouse assessed as inhibition of cisplatin-induced ISG56 mRNA expression in kidney at 25 to 50 mg/kg by qPCR analysis. It counts as functional, organism-based. The conditions noted are these: dose 25-50 mg/kg.
The target in series [9] is T3, Protein cereblon/Stimulator of interferon genes protein. Nature of the series: PROTAC activity at CRBN/STING in human THP-1 cells assessed as inhibition of cGAMP-induced ISG56 mRNA expression incubated for 1 hr followed by stimulation with cGAMP for 24 hrs by qRT-PCR analysis. It counts as cell-based. The conditions noted are these: dose 5-20 µM, time 25.0 hrs.
For series [10], the target named is T2, Stimulator of interferon genes protein (Mus musculus). The experiment in a line: Inhibition of STING in mouse RAW264.7 cells assessed as reduction in SR717-induced IRF3 phosphorylation at 0.3 to 20 uM pretreated for 1 hr followed by stimulation with SR717 for 24 hrs by western blot analysis. Format: cell-based. The conditions noted are these: dose 0.3-20 µM, time 25.0 hrs. Background: In western blotting, separated proteins are transferred to a membrane and probed.

For series [11], the target named is T3, Protein cereblon/Stimulator of interferon genes protein. Nature of the series: PROTAC activity at CRBN/STING in human THP-1 cells assessed as inhibition of cGAMP-induced IFN-beta mRNA expression incubated for 1 hr followed by stimulation with cGAMP for 24 hrs by qRT-PCR analysis. It counts as cell-based. The conditions noted are these: dose 5-20 µM, time 25.0 hrs.

Series [12] shares this target. Nature of the series: PROTAC activity at CRBN/STING in human THP-1 cells assessed as inhibition of cGAMP-induced TBK1 phosphorylation incubated for 24 hrs followed by stimulation with cGAMP for 24 hrs by western blot analysis. Format: cell-based. The conditions noted are these: dose 0.3-20 µM, time 48.0 hrs.
For series [13] the target is unchanged. The experiment in a line: PROTAC activity at CRBN/STING in human THP-1 cells assessed as induction of STING degradation at 3 uM pretreated with lysosome inhibitor, bafilomycin for 1 hr followed by incubation with compound for 24 hrs by western blot analysis. It counts as cell-based.
The target in series [14] is T2, Stimulator of interferon genes protein (Mus musculus). Nature of the series: Inhibition of STING in mouse RAW264.7 cells assessed as reduction in SR717-induced TBK1 phosphorylation at 0.3 to 20 uM pretreated for 1 hr followed by stimulation with SR717 for 24 hrs by western blot analysis. Format: cell-based. The conditions noted are these: dose 0.3-20 µM, time 25.0 hrs.

Series [15] addresses T3, Protein cereblon/Stimulator of interferon genes protein. Nature of the series: PROTAC activity at CRBN/STING in human THP-1 cells assessed as induction of STING degradation at 3 uM pretreated with proteasome inhibitor, MG132 for 1 hr followed by incubation with compound for 24 hrs by western blot analysis. Format: cell-based.
Series [16] concerns Mus musculus. The experiment in a line: Anti-inflammatory activity against cisplatin-induced acute kidney injury C57BL/6J mouse model assessed as decrease in plasma BUN level at 25 to 50 mg/kg. The conditions noted are these: dose 25-50 mg/kg. It counts as functional, organism-based.
Series [17] deals with T3, Protein cereblon/Stimulator of interferon genes protein. Nature of the series: PROTAC activity at CRBN/STING in human THP-1 cells assessed as inhibition of cGAMP-induced IRF3 phosphorylation incubated for 24 hrs followed by stimulation with cGAMP for 24 hrs by western blot analysis. It counts as cell-based. The conditions noted are these: dose 0.3-20 µM, time 48.0 hrs.

The target is the same in series [18]. The experiment in a line: PROTAC activity at CRBN/STING in human THP-1 cells assessed as inhibition of cGAMP-induced CXCL10 mRNA expression incubated for 1 hr followed by stimulation with cGAMP for 24 hrs by qRT-PCR analysis. It counts as cell-based. The conditions noted are these: dose 5-20 µM, time 25.0 hrs.
Series [19] addresses T1, Protein cereblon/Stimulator of interferon genes protein (Mus musculus). The experiment in a line: In vivo inhibition of STING signaling pathway in C57BL/6J mouse assessed as inhibition of cisplatin-induced TNF-alpha mRNA expression in kidney at 25 to 50 mg/kg by qPCR analysis. Format: functional, organism-based. The conditions noted are these: dose 25-50 mg/kg.
Series [20] has as its target T3, Protein cereblon/Stimulator of interferon genes protein. Nature of the series: PROTAC activity at CRBN/STING in human THP-1 cells assessed as inhibition of cGAMP-induced ISG15 mRNA expression incubated for 1 hr followed by stimulation with cGAMP for 24 hrs by qRT-PCR analysis. Format: cell-based. The conditions noted are these: dose 5-20 µM, time 25.0 hrs.

As to `O=C1CCC(N2C(=O)c3cccc(OCc4cn(CCCCCC(=O)OCCc5ccc(NC(=O)c6ccc([N+](=O)[O-])o6)cc5)nn4)c3C2=O)C(=O)N1` (stereo not given), the inhibition result in series [1], in series [8] and in series [19] was “Active” each time. Moreover, the inhibition result in [2], in series [10] and in series [14] was “Dose-Dependent Effect” throughout. Further, the Activity entry in series [3] is “Dose-Dependent Effect”; in series [5], “Dose-Dependent Effect”; in series [6], “Non-Toxic”; in series [9], “Dose-Dependent Effect”; in series [11], “Dose-Dependent Effect”; in [12] it was “Dose-Dependent Effect”. In addition, the Activity result in series [17], in series [18] and in [20] was “Dose-Dependent Effect” each time. Besides, the outcome (in the series with Mus musculus [4]; with Mus musculus [7]; in [15]; with Mus musculus [16]) was Active. In addition, the result in series [13] was inactive.
